Measured values as given in patent US9409882B2, “Pyridine derivatives” (Hoffmann-La Roche Inc., priority 2012, dated 2016).

Key:
human Cat L = human Cat L (Homo sapiens (Human), UniProt P07711); test: Cathepsin enzyme inhibition assay (fluorogenic peptide substrate), human Cat L; type: biochemical; conditions: human Cat L 1 nM, substrate Z-Val-Val-Arg-AMC 20 μM, pH 6.5
Method: (§1) Cathepsin Enzyme Inhibition Assay
(§2) Enzyme activity is measured by observing the increase in fluorescence intensity caused by cleavage of a peptide substrate containing a fluorophore whose emission is quenched in the intact peptide.
(§3) Assay buffer: 100 mM potassium phosphate pH 6.5, EDTA-Na 5 mM, Triton X-100 0.001%, DTT 5 mM.
(§4) Enzymes (all at 1 nM): human and mouse Cathepsin S, Cat K, Cat B, Cat L.
(§5) Substrate (20 μM): Z-Val-Val-Arg-AMC, except for Cat K which uses Z-Leu-Arg-AMC (both from Bachem).
(§6) AMC=7-Amino-4-Methyl-Coumarin.
(§7) Excitation 360 nm, Emission 465 nm.
(§8) Enzyme is added to the substance dilutions in 96-well microtitre plates and the reaction is started with substrate. […] IC50 are calculated by standard methods.
(§9) Inhibition of human Cat S, mouse Cat S, human Cat K, human Cat B, human Cat L and mouse Cat L have been measured separately.

human Cathepsin S = human Cathepsin S (Homo sapiens (Human), UniProt P25774); test: Cathepsin enzyme inhibition assay (fluorogenic peptide substrate), human Cat S; type: biochemical; conditions: human Cat S 1 nM, substrate Z-Val-Val-Arg-AMC 20 μM, pH 6.5
Method: as §1, §2, §3, §4, §5, §6, §7, §8, §9

human Cat L, sequence (P07711 114-333): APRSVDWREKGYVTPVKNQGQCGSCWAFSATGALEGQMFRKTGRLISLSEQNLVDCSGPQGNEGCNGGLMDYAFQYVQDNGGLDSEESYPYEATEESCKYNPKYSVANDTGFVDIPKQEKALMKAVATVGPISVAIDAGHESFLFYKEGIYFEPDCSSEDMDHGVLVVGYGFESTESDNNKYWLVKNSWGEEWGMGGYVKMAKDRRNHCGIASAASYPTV
human Cathepsin S, sequence (P25774 115-331): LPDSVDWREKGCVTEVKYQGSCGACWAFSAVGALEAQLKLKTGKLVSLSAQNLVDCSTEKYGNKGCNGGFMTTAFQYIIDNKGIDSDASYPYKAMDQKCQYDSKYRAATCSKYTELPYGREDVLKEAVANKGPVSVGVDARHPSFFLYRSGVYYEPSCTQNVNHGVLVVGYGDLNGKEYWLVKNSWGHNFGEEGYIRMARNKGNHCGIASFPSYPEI

Row | SMILES | IC50 (human Cat L) | IC50 (human Cathepsin S)
1 | COc1ccc(S(=O)(=O)[C@@H]2C[C@@H](C(=O)NC3(C#N)CC3)N(C(=O)C3(c4ccc(Cl)cn4)CC3)C2)c(Cl)c1 [Example 1, (2S,4R)-4-(2-Chloro-4-methoxy-benzenesulfonyl)-1-[1-(5-chloro-pyridin-2-yl)-cyclopropanecarbonyl]-pyrrolidine-2-carboxylic acid (1-cyano-cyclopropyl)-amide] | 410 nM | 0.606 nM
2 | N#CC1(NC(=O)[C@@H]2C[C@@H](S(=O)(=O)c3ccccc3Cl)CN2C(=O)C2(c3ccc(Cl)cn3)CC2)CC1 [Example 2, (2S,4R)-4-(2-Chloro-benzenesulfonyl)-1-[1-(5-chloro-pyridin-2-yl)-cyclopropanecarbonyl]-pyrrolidine-2-carboxylic acid (1-cyano-cyclopropyl)-amide] | 340 nM | 0.492 nM
3 | N#CC1(NC(=O)[C@@H]2C[C@@H](S(=O)(=O)c3ccc(OCC(F)(F)F)cc3Cl)CN2C(=O)C2(c3ccc(Cl)cn3)CC2)CC1 [Example 3, (2S,4R)-1-[1-(5-Chloro-pyridin-2-yl)-cyclopropanecarbonyl]-4-[2-chloro-4-(2,2,2-trifluoro-ethoxy)-benzenesulfonyl]-pyrrolidine-2-carboxylic acid (1-cyano-cyclopropyl)-amide] | 429 nM | 0.825 nM
4 | N#CC1(NC(=O)[C@@H]2C[C@@H](S(=O)(=O)c3ccc(OCC(F)(F)F)cc3Cl)CN2C(=O)C2(c3ncc(Cl)cc3F)CC2)CC1 [Example 6, (2S,4R)-1-[1-(5-Chloro-3-fluoro-pyridin-2-yl)-cyclopropanecarbonyl]-4-[2-chloro-4-(2,2,2-trifluoro-ethoxy)-benzenesulfonyl]-pyrrolidine-2-carboxylic acid (1-cyano-cyclopropyl)-amide] | 44.5 nM | 0.675 nM
5 | COc1ccc(S(=O)(=O)[C@@H]2C[C@@H](C(=O)NC3(C#N)CC3)N(C(=O)C3(c4ncc(Br)cc4F)CC3)C2)c(Cl)c1 [Example 7, (2S,4R)-1-[1-(5-Bromo-3-fluoro-pyridin-2-yl)-cyclopropanecarbonyl]-4-(2-chloro-4-methoxy-benzenesulfonyl)-pyrrolidine-2-carboxylic acid (1-cyano-cyclopropyl)-amide] | 25.5 nM | 0.734 nM
6 | N#CC1(NC(=O)[C@@H]2C[C@@H](S(=O)(=O)c3ccccc3Cl)CN2C(=O)C2(c3ncc(Br)cc3F)CC2)CC1 [Example 8, (2S,4R)-1-[1-(5-Bromo-3-fluoro-pyridin-2-yl)-cyclopropanecarbonyl]-4-(2-chloro-benzenesulfonyl)-pyrrolidine-2-carboxylic acid (1-cyano-cyclopropyl)-amide] | 19.2 nM | 0.438 nM
7 | N#CC1(NC(=O)[C@@H]2C[C@@H](S(=O)(=O)c3ncccc3Cl)CN2C(=O)C2(c3ncc(Cl)cc3F)CC2)CC1 [Example 14, (2S,4R)-1-[1-(5-Chloro-3-fluoro-pyridin-2-yl)-cyclopropanecarbonyl]-4-(3-chloropyridine-2-sulfonyl)-pyrrolidine-2-carboxylic acid (1-cyano-cyclopropyl)-amide] | 2120 nM | 
8 | Cn1cc(-c2ccc(S(=O)(=O)[C@@H]3C[C@@H](C(=O)NC4(C#N)CC4)N(C(=O)C4(c5ncc(Cl)cc5Cl)CC4)C3)c(Cl)c2)cn1 [Example 40, (2S,4R)-4-[2-Chloro-4-(1-methyl-1H-pyrazol-4-yl)-benzenesulfonyl]-1-[1-(3,5-dichloro-pyridin-2-yl)-cyclopropanecarbonyl]-pyrrolidine-2-carboxylic acid (1-cyano-cyclopropyl)-amide] |  | 0.703 nM

Results, then the compound that gave them:

Row | IC50 (human Cat L) | IC50 (human Cathepsin S) | SMILES
9 | 11.9 nM | 0.393 nM | COc1ccc(S(=O)(=O)[C@@H]2C[C@@H](C(=O)NC3(C#N)CC3)N(C(=O)C3(c4ncc(Cl)cc4F)CC3)C2)c(Cl)c1 [Example 4, (2S,4R)-1-[1-(5-Chloro-3-fluoro-pyridin-2-yl)-cyclopropanecarbonyl]-4-(2-chloro-4-methoxy-benzenesulfonyl)-pyrrolidine-2-carboxylic acid (1-cyano-cyclopropyl)-amide]
10 | 12.9 nM | 0.398 nM | N#CC1(NC(=O)[C@@H]2C[C@@H](S(=O)(=O)c3ccccc3Cl)CN2C(=O)C2(c3ncc(Cl)cc3F)CC2)CC1 [Example 5, (2S,4R)-4-(2-Chloro-benzenesulfonyl)-1-[1-(5-chloro-3-fluoro-pyridin-2-yl)-cyclopropanecarbonyl]-pyrrolidine-2-carboxylic acid (1-cyano-cyclopropyl)-amide]
11 | 416 nM | 11.8 nM | N#CC1(NC(=O)[C@@H]2C[C@@H](Sc3cccc(-c4ccc(F)cc4)c3)CN2C(=O)C2(c3ncc(Cl)cc3F)CC2)CC1 [Example 9, (2S,4R)-1-[1-(5-Chloro-3-fluoro-pyridin-2-yl)-cyclopropanecarbonyl]-4-(4′-fluorobiphenyl-3-ylsulfanyl)-pyrrolidine-2-carboxylic acid (1-cyano-cyclopropyl)-amide]
12 |  | 964 nM | N#CC1(NC(=O)[C@@H]2C[C@@H](Sc3ncccc3Cl)CN2C(=O)C2(c3ncc(Cl)cc3F)CC2)CC1 [Example 10, (2S,4R)-1-[1-(5-Chloro-3-fluoro-pyridin-2-yl)-cyclopropanecarbonyl]-4-(3-chloro-pyridin-2-ylsulfanyl)-pyrrolidine-2-carboxylic acid (1-cyano-cyclopropyl)-amide]
13 | 89.8 nM | 0.602 nM | N#CC1(NC(=O)[C@@H]2C[C@@H](S(=O)(=O)c3ccc(F)cc3Cl)CN2C(=O)C2(c3ncc(Cl)cc3F)CC2)CC1 [Example 11, (2S,4R)-1-(1-(5-chloro-3-fluoropyridin-2-yl)cyclopropanecarbonyl)-4-(2-chloro-4-fluorophenylsulfonyl)-N-(1-cyanocyclopropyl)pyrrolidine-2-carboxamide]
14 | 8230 nM | 594 nM | N#CC1(NC(=O)[C@@H]2C[C@@H](Sc3ccccn3)CN2C(=O)C2(c3ncc(Cl)cc3F)CC2)CC1 [Example 12, (2S,4R)-1-[1-(5-Chloro-3-fluoro-pyridin-2-yl)-cyclopropanecarbonyl]-4-(pyridin-2-ylsulfanyl)-pyrrolidine-2-carboxylic acid (1-cyano-cyclopropyl)-amide]
15 | 247 nM |  | N#CC1(NC(=O)[C@@H]2C[C@@H](S(=O)(=O)c3cccc(-c4ccc(F)cc4)c3)CN2C(=O)C2(c3ncc(Cl)cc3F)CC2)CC1 [Example 13, (2S,4R)-1-[1-(5-Chloro-3-fluoro-pyridin-2-yl)-cyclopropanecarbonyl]-4-(4′-fluorobiphenyl-3-sulfonyl)-pyrrolidine-2-carboxylic acid (1-cyano-cyclopropyl)-amide]
16 | 4610 nM |  | Cc1cccc(S[C@@H]2C[C@@H](C(=O)NC3(C#N)CC3)N(C(=O)C3(c4ncc(Cl)cc4F)CC3)C2)n1 [Example 19, (2S,4R)-1-[1-(5-Chloro-3-fluoro-pyridin-2-yl)-cyclopropanecarbonyl]-4-(6-methyl-pyridin-2-ylsulfanyl)-pyrrolidine-2-carboxylic acid (1-cyano-cyclopropyl)-amide]
17 | 52.4 nM |  | N#CC1(NC(=O)[C@@H]2C[C@@H](Sc3cc(C(F)(F)F)ccc3Cl)CN2C(=O)C2(c3ncc(Cl)cc3F)CC2)CC1 [Example 26, (2S,4R)-1-[1-(5-Chloro-3-fluoro-pyridin-2-yl)-cyclopropanecarbonyl]-4-(2-chloro-5-trifluoromethyl-phenylsulfanyl)-pyrrolidine-2-carboxylic acid (1-cyano-cyclopropyl)-amide]
